The results in this text go back to ChEMBL document CHEMBL3507680, “University of Dundee, Gates Library screen for HepG2 cell viability”.

The nature of the data set: Human HepG2 cell viability assay in 384 well format. Type of data set: toxicity, cell-based. Further details: dose 125 nL, time 70.5 hour; concentration not given beside the values. The note with it: HepG2 cells, read-out: Inhibition.
Take `CC(=O)N1CCC(n2nccc2-c2cnc(N3CCCC3)nc2)CC1`: the cytotoxicity at 70.5 h was -9%. The result for `CN(C(=O)Cn1nc(-c2ccc(F)cc2)ccc1=O)C1CCS(=O)(=O)C1` (stereo not given) reads -0.171%; that for `CC(C)c1nc(CN2CCCC2Cn2cccn2)no1` (stereo not given), -2.93%; that for `N#Cc1cccc(N2CCC(CO)(CCCc3ccccc3)CC2)n1`, -4.41%. Regarding `CSCc1noc(C2CCC(=O)N(CCc3ccccc3)C2)n1` (stereo not given), the cytotoxicity at 70.5 h was -13.9%. As for `CCN(CC1CCOC1)C(=O)c1ccccc1N1CCOCC1` (stereo not given), the cytotoxicity at 70.5 h came out at 18.7%. For `Cc1cc(C2CCCN2Cc2ccn(C)c(=O)c2)no1` (stereo not given), the cytotoxicity at 70.5 h was -1.78%. Regarding `CCc1nc(CN2CCCN(C(=O)c3cccn3C)CC2)cs1`, the cytotoxicity at 70.5 h stood at 2.1%. For `COC(=O)C(NC(=O)Nc1ccc(C(C)=O)cc1)C(C)C` (stereo not given), the cytotoxicity at 70.5 h is -5.76%.

For `CN(CCc1ccccn1)C(=O)c1cn2c(n1)CNCC2`, the cytotoxicity at 70.5 h was -8.81%. As for `Cc1cccc(SC2CCN(C(=O)CCCS(N)(=O)=O)CC2)c1`, the cytotoxicity at 70.5 h is -6.67%. The result for `Cc1cnn(CCNCc2csc(-c3ccsc3)n2)c1` reads -6.72%. Consider `CS(=O)(=O)c1cn[nH]c1C1CCCN(C(=O)Cn2cccn2)C1` (stereo not given), for which the cytotoxicity at 70.5 h is -9.34%. The same measure for `Cc1ccc(C2CCCN2S(=O)(=O)N(C)Cc2cnccn2)o1` (stereo not given): -3.89%.

As for `Cc1nccc(CN2CCC(c3nnsc3S(C)(=O)=O)CC2)n1`, the cytotoxicity at 70.5 h was -21.3%.

Regarding `c1cc(CCNc2ncc(-c3cnccn3)c(C3CC3)n2)ccn1`, the cytotoxicity at 70.5 h is -5.03%. Take `Cc1cccc2nc(CN3CCC(N4CCN(C)C4=O)CC3)cn12`: the cytotoxicity at 70.5 h was -4.38%. In the case of `Cc1cccc(CNC(=O)Nc2ccn(CCN(C)C)n2)c1`, the cytotoxicity at 70.5 h was -7.32%. The result for `O=S1(=O)CCC(N(CCc2ccc3c(c2)CCO3)C2CC2)C1` (stereo not given) reads -1.96%; that for `COC(=O)C(NC(=O)C1CCCC1)c1cc(F)ccc1F` (stereo not given), 0.552%; that for `O=C(c1cc2c([nH]c1=O)CCC2)N1CCCC1c1ccccc1` (stereo not given), -4.54%. The same measure for `CC(C)(C)OC(=O)N1CCC(NC2CC2)CC1`: -7.1%; for `CC(C)C1CN(c2nccc(N)n2)CCC(=O)N1Cc1ccc(F)cc1` (stereo not given): -8.72%; for `CC(C)=CCN1C(=O)[C@H]2CC[C@@H]1CN(C(=O)CCc1n[nH]c(C)c1C)C2`: 11.2%. As to `CC(NCc1ccccc1O)c1ccc(-n2ccnc2)cc1` (stereo not given), the cytotoxicity at 70.5 h was found to be 26.4%. Regarding `Cc1cc(C(=O)N2CCCC2c2c(C)nn(C)c2C)no1` (stereo not given), the cytotoxicity at 70.5 h was -10.1%. For the compound `CC(C)CC(NC(=O)c1cc(C2CC2)n[nH]1)c1ncnn1C` (stereo not given), the cytotoxicity at 70.5 h is 20.9%. Turning to `Cc1ccoc1-c1nnc(CN2CCn3c(C)nnc3C2)o1`, the cytotoxicity at 70.5 h was -0.634%. On to `CN(C)c1nc2c(c(N3CCc4c(c(CO)nn4C)C3)n1)CCNC2`, for which the cytotoxicity at 70.5 h came out at 46.5%.

As to `CN(C)CCN1CCC(NC2CSCCc3ccccc32)CC1` (stereo not given), the cytotoxicity at 70.5 h is -7.29%.

As to `CC(NC(=O)C1CC1)C(=O)N(C)Cc1ccsc1` (stereo not given), the cytotoxicity at 70.5 h is -5.83%. With `Cc1ccc(NC2CCN(C(=O)Cc3ccc(C)s3)CC2)nn1`, the cytotoxicity at 70.5 h was -7.07%. For `CC(C)c1nc(C2CCCN(C(=O)c3nccn4ccnc34)C2)no1` (stereo not given), the cytotoxicity at 70.5 h was -7.38%. Regarding `COc1c(CNCCc2c[nH]c3ccccc23)c(C)nn1C`, the cytotoxicity at 70.5 h is 22.7%.

On to `CCN1CCC2(CC1)CC(COC)N(Cc1csc(C)n1)C2` (stereo not given), for which the cytotoxicity at 70.5 h is -5.79%. `CN1CCN(CCCN(C)S(=O)(=O)C2CCCCC2)CC1`: the cytotoxicity at 70.5 h is -1.58%. `c1csc(CN2CC3(CCN(Cc4ccsc4)C3)C2)n1`: the cytotoxicity at 70.5 h stood at 8.65%. The same measure for `NC(=O)C1CCN(CCCNC(=O)Nc2nccs2)CC1`: -25.9%; for `Cc1cc(CN(C)CCC(O)c2ccccc2)no1` (stereo not given): 1.83%; for `CCOc1ccccc1OC1CCN(C(=O)c2csnn2)CC1`: -5.03%. Regarding `CN(Cc1nnc(C2CC2)n1C)C1CCN(CCc2ccncc2)C1` (stereo not given), the cytotoxicity at 70.5 h was -6%.

Regarding `CC(=O)NCc1ccc(S(=O)(=O)NC(=O)c2ccc3c(c2)COC3)cc1`, the cytotoxicity at 70.5 h was -4.89%.

Regarding `CC(Cn1cccn1)n1cnc2ccc(F)cc2c1=O` (stereo not given), the cytotoxicity at 70.5 h is -7.83%. Regarding `CC1(C)CC(C(=O)N2CCC3(CCC(=O)N(C4CC4)C3)CC2)CCO1` (stereo not given), the cytotoxicity at 70.5 h is -4.55%. In the case of `CCN(CC1CCOC1)C(=O)c1ccc(N2CCOCC2)c(F)c1` (stereo not given), the cytotoxicity at 70.5 h is -6.24%. `COc1ccccc1OCC(=O)NS(=O)(=O)c1ccccc1F`: the cytotoxicity at 70.5 h was -0.501%.

Take `CCOCCN1CCN(CC(=O)N2CCCC2)CC1C` (stereo not given): the cytotoxicity at 70.5 h was -7.94%. The same measure for `CCc1ncncc1C(=O)N1CCCN(Cc2ccc(C)cc2)CC1`: 20.1%. Consider `CN1CCN(C2CCN(CCOc3ccccc3F)CC2)C1=O`, for which the cytotoxicity at 70.5 h is -11.6%.

For the compound `CN(C)Cc1nn(C)c2c1CCN(C(=O)c1cnccn1)C2`, the cytotoxicity at 70.5 h amounted to 17.9%. Regarding `O=C(NC[C@H]1C[C@@H]2CN(C(=O)c3ccco3)C[C@@H]2O1)c1ccsc1`, the cytotoxicity at 70.5 h is -3.16%. For `Cn1cc(C2CCCN2Cc2csc(C3CCCC3)n2)cn1` (stereo not given), the cytotoxicity at 70.5 h is 0.499%. The same measure for `CCCn1ncnc1C(C)NC(=O)C1CCN(C(C)C)CC1` (stereo not given): -4.07%. Consider `CCC(C)NC(=O)CS(=O)(=O)Cc1cc(C)ccc1C` (stereo not given), for which the cytotoxicity at 70.5 h was -11.2%. The result for `Cc1nc[nH]c1CN1CCCC12CCN(c1nc3ccccc3s1)CC2` reads -1.37%.

For the compound `N#Cc1ccc(C(=O)N2CCCSCC2CN2CCCC2)cc1` (stereo not given), the cytotoxicity at 70.5 h was -5.18%. The result for `N#CCCN(Cc1cccnc1)C(=O)c1cc(Cl)c[nH]1` reads -7.86%; that for `CCC(=O)Nc1nnc(CCOc2ccccc2)s1`, -2.19%; that for `COc1nc(C)c(C(=O)N2CCC(C(O)Cc3ccccc3)CC2)s1` (stereo not given), -11.5%. In the case of `CC(C)n1cnnc1CN(C)C(=O)c1cc(COc2ccccc2)[nH]n1`, the cytotoxicity at 70.5 h was determined as 2.63%. The result for `Cc1noc(C)c1CNCc1c(C(C)C)nn(C)c1N1CCOCC1` reads -10.5%; that for `CC(=O)N1[C@H](Cn2cncn2)C[C@@H]2CN(Cc3nccs3)CC[C@@H]21`, 14.9%; that for `O=C(c1cn2ccsc2n1)N1CCOCC(O)(CN2CCCC2)C1` (stereo not given), 1.73%.

With `Cc1cc(C)nc(N2CCC(C(=O)O)(n3ccc(C(C)(C)C)n3)CC2)n1`, the cytotoxicity at 70.5 h was -10.1%. The result for `Cc1csc(N2CCN(C(=O)CCn3cccn3)CC2)n1` reads 3.65%; that for `NC(=O)NCCC(=O)N1CCC(c2cc(Cc3ccccc3)n[nH]2)CC1`, -6.87%.

Regarding `O=C(c1cccnc1)N1CCCC(Cc2nccs2)C1` (stereo not given), the cytotoxicity at 70.5 h is -6.74%. The same measure for `CC(=O)Nc1ccc2nc(-c3nccn3CC(C)(C)CO)ccc2c1`: -11%; for `NC(=O)N1CCCN(CCCSCc2ccccc2)CC1`: -17.6%; for `Cc1csc(N2CCN(CC(=O)Nc3nncs3)CC2C)n1` (stereo not given): -10%. Regarding `Cc1cnccc1N1CCCN(C(=O)CCCS(N)(=O)=O)CC1`, the cytotoxicity at 70.5 h is 3.54%. The result for `CCc1nnc2n1CCN(C(=O)c1nc(-c3ccco3)sc1C)C2` reads -6%; that for `CCN1CCCN(S(=O)(=O)c2cc3ccccc3o2)CC1`, -4.88%. Turning to `CN1CCCCCC1C(=O)NCCCn1ncc2ccccc21` (stereo not given), the cytotoxicity at 70.5 h is -11.3%.

Turning to `CCC(C)NS(=O)(=O)c1ccc(C(=O)NC2(C#N)CCC2)cc1` (stereo not given), the cytotoxicity at 70.5 h is 39.3%.

Regarding `COCCN1C[C@@H](C)[C@@]2(COCCN(C(=O)c3ccno3)C2)C1`, the cytotoxicity at 70.5 h was -1.41%. With `Fc1ccc(CN2CCO[C@H]3[C@H](OCC4CC4)CC[C@@H]32)cc1`, the cytotoxicity at 70.5 h is -4.72%. The same measure for `CCS(=O)(=O)NCc1cccnc1N1CCCC(O)C1` (stereo not given): -26.9%.

On to `O=C(O)c1cc(NS(=O)(=O)c2ccc(Cl)s2)ccc1N1CCOCC1`, for which the cytotoxicity at 70.5 h was -2.78%. For `Cc1cccc(CN2CCC3(CCCN(C(=O)N4CCCC4)C3)C2=O)n1` (stereo not given), the cytotoxicity at 70.5 h worked out at 40%.

Consider `CCCS(=O)(=O)N1CCc2nc(N3CCOCC3)nc(N(C)C)c2C1`, for which the cytotoxicity at 70.5 h amounted to 26.5%. Regarding `O=C(O)COc1ccc(CN2CCCC(CCc3ccccc3)C2)cc1` (stereo not given), the cytotoxicity at 70.5 h was determined as 20.1%. As for `CN(Cc1ccc(-n2cncn2)cc1)Cc1ncc[nH]1`, the cytotoxicity at 70.5 h was -0.834%. Regarding `O=C(Cc1ccc2c(c1)OCCO2)N1CCCC(n2cncn2)C1` (stereo not given), the cytotoxicity at 70.5 h was -9.12%. `Cc1ccc2nc(CN3CCC(O)(CN4CCCC4)CC3)cc(O)c2c1`: the cytotoxicity at 70.5 h was -7.1%. The same measure for `CCCc1cc(NC2CCc3nc(C(C)C)nn3C2)n2ncnc2n1` (stereo not given): -104%; for `CCC(C)(NCC(=O)OC)c1nc(C)cs1` (stereo not given): -1.12%. For `Cc1nc(NC2CC2)c2c(n1)c(C)nn2C`, the cytotoxicity at 70.5 h is -18.4%. The same measure for `CC(C)c1nc2cc(NC(=O)Cn3ccc(=O)[nH]c3=O)ccc2o1`: -8.49%; for `Cc1nsc(NCCNS(=O)(=O)c2ccccc2)n1`: -1.39%; for `OC(CN1CCC(c2ccn[nH]2)CC1)c1cc(F)ccc1F` (stereo not given): -1.27%.

Regarding `COc1ccc(OCCN(C)S(=O)(=O)N2CCOCC2)cc1`, the cytotoxicity at 70.5 h was -6.12%. The same measure for `CSCC[C@@H](CO)n1ccnc1-c1ccc(C)o1`: 0.0887%; for `CCSc1ncc(CN2CC[C@@](O)(COC)C(C)(C)C2)cn1`: -18.2%. The same measure for `CCCc1nc(CN2CCCC(c3noc(C4CC4)n3)C2)no1` (stereo not given): -4.77%; for `COc1ncccc1C(=O)NCC(C)Oc1cccnc1` (stereo not given): -10.8%; for `COc1cccc(OC)c1CNC(Cc1ccsc1)c1ccc(C)cn1` (stereo not given): 4.63%. `Cc1cccc(OCC(=O)N(Cc2ccncc2)C2CC2)c1`: the cytotoxicity at 70.5 h is -0.457%. The result for `Cc1noc(CN(C)CC2(O)CCCN(CCC3CCCCC3)C2=O)n1` (stereo not given) reads -0.981%; that for `CC1CCC(NS(=O)(=O)CC(=O)NC2(C(N)=O)CCCC2)CC1` (stereo not given), -7.07%.
